Experimental data published in the supplement of paper PMC10307832.

Key:
Assay in all cases: relative viability (nuclei count vs DMSO), 5 days (fraction); higher = more cells survive
[1] = compound: Cc1ccc(C(=O)N(CCCN)[C@@H](c2nc3cc(Cl)ccc3c(=O)n2Cc2ccccc2)C(C)C)cc1 [Ispinesib] + CC(=O)Nc1cccc(-n2c(=O)n(C3CC3)c(=O)c3c(Nc4ccc(I)cc4F)n(C)c(=O)c(C)c32)c1 [Trametinib] (partner 0.02 µM)
In short: (§1)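 Values are medians from duplicate plates. Each reflects relative viability, defined as the nuclei count of treated wells over that of vehicle wells. Lung cancer cell lines in 1536-well plates were pin-tool dosed one day after seeding with one drug alone or with a fixed anchor-drug dose plus five library-drug doses (not always all listed) in √10 steps, then fixed, stained and imaged at 4× after 5 days.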

[2] = compound: Cc1ccc(C(=O)N(CCCN)[C@@H](c2nc3cc(Cl)ccc3c(=O)n2Cc2ccccc2)C(C)C)cc1 [Ispinesib] + COc1cc2c(Oc3ccc(NC(=O)C4(C(=O)Nc5ccc(F)cc5)CC4)cc3F)ccnc2cc1OCCCN1CCOCC1 [Foretinib] (partner 0.25 µM)
In short: as §1

[3] = compound: C[C@]1(O)C[C@@H](c2nc(-c3ccc4ccc(-c5ccccc5)nc4c3)c3c(N)nccn32)C1 [Linsitinib] + CS(=O)(=O)CCNCc1ccc(-c2ccc3ncnc(Nc4ccc(OCc5cccc(F)c5)c(Cl)c4)c3c2)o1 [Lapatinib] (partner 2 µM)
In short: as §1

[4] = compound: Cc1ccc(C(=O)N(CCCN)[C@@H](c2nc3cc(Cl)ccc3c(=O)n2Cc2ccccc2)C(C)C)cc1 [Ispinesib] + Cc1nc(NC(=O)N2CCC[C@H]2C(N)=O)sc1-c1ccnc(C(C)(C)C(F)(F)F)c1 [Alpelisib] (partner 2 µM)
In short: as §1

Row | Cell Line | relative viability ([1]; first compound 0.001 µM) | relative viability ([1]; first compound 0.003162 µM) | relative viability ([1]; first compound 0.01 µM) | relative viability ([1]; first compound 0.03162 µM) | relative viability ([1]; first compound 0.1 µM) | relative viability ([2]; first compound 0.001 µM) | relative viability ([2]; first compound 0.003162 µM) | relative viability ([2]; first compound 0.01 µM) | relative viability ([2]; first compound 0.03162 µM) | relative viability ([2]; first compound 0.1 µM) | relative viability ([3]; first compound 0.01 µM) | relative viability ([3]; first compound 0.03162 µM) | relative viability ([3]; first compound 0.1 µM) | relative viability ([3]; first compound 0.3162 µM) | relative viability ([3]; first compound 1 µM) | relative viability ([4]; first compound 0.001 µM) | relative viability ([4]; first compound 0.003162 µM) | relative viability ([4]; first compound 0.01 µM) | relative viability ([4]; first compound 0.03162 µM) | relative viability ([4]; first compound 0.1 µM)
1 | NCI-H1944 | 0.431 | 0.408 | 0.36 | 0.383 | 0.334 | 0.797 | 0.908 | 0.9 | 0.627 | 0.677 | 0.787 | 0.833 | 0.872 | 0.527 | 0.46 | 0.861 | 0.803 | 0.851 | 0.508 | 0.634
2 | NCI-H1975 | 0.345 | 0.337 | 0.364 | 0.158 | 0.158 | 0.996 | 0.934 | 1.05 | 0.632 | 0.144 | 0.825 | 0.82 | 0.866 | 1.04 | 0.684 | 0.738 | 0.672 | 0.666 | 0.332 | 0.226
3 | NCI-H1993 | 0.619 | 0.527 | 0.414 | 0.508 | 0.423 | 0.694 | 0.786 | 0.802 | 0.756 | 0.633 | 0.784 | 0.793 | 0.76 | 0.498 | 0.684 | 0.697 | 0.637 | 0.709 | 0.663 | 0.596
4 | NCI-H2009 | 0.28 | 0.271 | 0.287 | 0.203 | 0.151 | 1.28 | 1.33 | 1.32 | 1.09 | 0.431 | 0.945 | 0.878 | 0.997 | 0.148 | 0.963 | 1.16 | 1.18 | 1.33 | 1.04 | 0.463
5 | NCI-H2023 | 0.574 | 0.606 | 0.551 | 0.24 | 0.14 | 0.966 | 0.755 | 0.807 | 0.457 | 0.168 | 0.821 | 0.411 | 0.895 | 0.0717 | 0.408 | 0.65 | 0.606 | 0.659 | 0.5 | 0.18
6 | NCI-H2085 | 0.498 | 0.563 | 0.58 | 0.519 | 0.472 | 0.838 | 1.06 | 1.05 | 0.848 | 0.371 | 0.701 | 0.822 | 0.822 | 0.753 | 0.658 | 0.997 | 1.04 | 1.04 | 1.02 | 0.688
7 | NCI-H2087 | 0.153 | 0.196 | 0.212 | 0.236 | 0.0806 | 1.17 | 1.14 | 1.45 | 0.901 | 0.209 | 0.886 | 1.26 | 1.13 | 0.349 | 0.626 | 0.992 | 1.2 | 1.28 | 1.02 | 0.159
8 | NCI-H2126 | 0.542 | 0.574 | 0.58 | 0.589 | 0.508 | 1.27 | 1.35 | 1.39 | 1.14 | 1.03 | 0.774 | 0.754 | 0.704 | 0.392 | 0.455 | 0.765 | 0.811 | 0.901 | 0.742 | 0.813
9 | NCI-H2170 | 1.02 | 0.933 | 1.09 | 0.684 | 0.488 | 0.997 | 1.03 | 0.96 | 0.806 | 0.359 | 0.266 | 0.256 | 0.276 | 0.256 | 0.228 | 0.892 | 0.765 | 0.947 | 0.603 | 0.484
10 | NCI-H2228 | 0.615 | 0.496 | 0.415 | 0.263 | 0.28 | 0.909 | 0.957 | 1.24 | 1 | 0.322 | 0.978 | 0.839 | 1.08 | 0.663 | 0.8 | 0.632 | 0.582 | 1.14 | 0.522 | 0.325
11 | NCI-H2347 | 0.299 | 0.23 | 0.294 | 0.343 | 0.252 | – | 1.12 | 1.16 | 0.669 | 0.904 | 0.821 | 0.998 | 0.969 | 0.461 | 0.772 | 1.04 | 1.13 | 1.18 | 0.94 | 0.655
12 | NCI-H2405 | 0.708 | 0.632 | 0.525 | 0.566 | 0.478 | 1.04 | 1.06 | 1.02 | 1.07 | 0.978 | 1.12 | 1.04 | 1.07 | 0.887 | 0.735 | 0.922 | 0.647 | 0.763 | 0.717 | 0.364
13 | NCI-H3122 | 0.284 | 0.252 | 0.246 | 0.316 | 0.162 | 0.977 | 1.01 | 1.08 | 1.07 | 0.207 | 1.04 | 1.06 | 0.982 | 0.737 | 1.12 | 0.783 | 0.86 | 0.778 | 0.897 | 0.223
14 | PC-3 [JPC-3] | 0.717 | 0.83 | 0.689 | 0.664 | 0.375 | 1.09 | 1.1 | 0.594 | 1.07 | 0.751 | 0.43 | 0.455 | 0.405 | 0.369 | 0.373 | 0.992 | 1.09 | 1.07 | 1.06 | 1.11
15 | PC-14 | 0.788 | 0.707 | 0.282 | 0.0652 | 0.101 | 1.02 | 1.09 | 1.23 | 0.917 | 0.186 | 0.281 | 0.301 | 0.303 | 0.31 | 0.257 | 1.01 | 1.05 | 1.05 | 0.942 | 0.174
16 | RERF-LC-KJ | 0.898 | 0.869 | 0.787 | 0.514 | 0.528 | 0.875 | 0.9 | 0.976 | 0.91 | 0.257 | 0.8 | 0.846 | 0.826 | 0.554 | 0.645 | 0.836 | 1.32 | 0.77 | 0.794 | 0.631
17 | SK-LU-1 | 0.506 | 0.524 | 0.458 | 0.359 | 0.356 | 1.01 | 0.806 | 0.942 | 0.821 | 0.286 | 0.889 | 0.902 | 0.987 | – | 0.815 | 1.08 | 1.01 | 1.15 | 0.773 | 0.383
18 | SK-MES-1 | 0.586 | 0.533 | 0.583 | 0.21 | 0.195 | 1.01 | 1.02 | 0.993 | 0.928 | 0.256 | 0.434 | 0.456 | 0.467 | 0.462 | 0.435 | 0.905 | 1.42 | 1.07 | 0.681 | 0.286
19 | SW 1573 | 0.614 | 0.547 | 0.516 | 0.158 | 0.144 | 0.978 | 0.893 | 0.907 | 1.1 | 0.32 | 1.18 | 1.3 | 1.05 | 0.939 | 0.933 | 1 | 0.816 | 1.07 | 0.893 | 0.255
